Patent publication US12662513B2, “Peptidic modulators of quorum sensing in Staphylococcus epidermidis” (priority 2016, dated 2026)
Entries after “also recorded” stand apart in the source; their conditions may differ. Read-outs that look alike come from different tables or passages of the source. Bridge positions count the residues as written; N and C are the ends. Square brackets hold non-standard residues; d marks the D form. Ends that are not written are not given here. Peptide text beside a SMILES is read from it.

Tests used:
AgrC-I receptor [1] = target: T1, AgrC-I receptor (Staphylococcus epidermidis, UniProt Q5HMY3); assay: cell-based; assay type: cell-based, S. epidermidis; details: for Mode/strength of activity toward AgrC-I (Group I), in words: dose response; for EC50 in AgrC-I: activation dose response in the presence of 50 nM S. epidermidis AIP-II; for IC50 in AgrC-I: antagonism dose response, peptide alone, Group-I GFP reporter strain, 24 h
Protocol: The initial set of 14 analogs (listed in Table 1) was synthesized using solid-phase peptide chemistry and purified to homogeneity using previously established HPLC methods (59). Each analog was tested for its ability to modulate the activity of the AgrC-I receptor using a wild-type S. epidermidis Group-I fluorescence reporter strain. This strain contained a reporter plasmid encoding a gfp gene fused to the P3 promoter found upstream of RNAIII (36).
(§1) Biological reagents, strains, and general methods. All standard reagents were purchased from commercial sources and used according to enclosed instructions. The S. epidermidis fluorescence reporter strains AH3408 (Group-I), AH3567 (Group-II), and AH3409 (Group-III) were cultured in Tryptic Soy Broth (TSB, from Sigma) augmented with 10 μg/mL of erythromycin (36). The S. epidermidis wild-type strain RP62A (Group-I) was cultured in TSB (from Sigma or EMD Millipore). The S. aureus fluorescence reporter strains AH1677 (Group-I), AH430 (Group-II), AH1747 (Group-III), and AH1872 (Group-IV) were cultured in Brain Heart Infusion (BHI, from Teknova) augmented with 10 μg/mL of chloramphenicol (65). All cultures were grown at 37° C. with shaking (200 rpm) unless noted otherwise. Absorbance and fluorescence measurements were obtained using a Biotek Synergy 2 microplate reader operating Gen5 data analysis software. IC50 values and EC50 values were determined from sigmoidal curve fits using GraphPad Prism software (v. 6.0).
(§2) Fluorescence reporter assay protocol. […] Each peptide solution was tested in triplicate. […] Plates were then incubated at 37° C. for 24 h. Fluorescence (EX 500 nm/EM 540 nm) and OD600 of each well was measured using a plate reader, and the fluorescence values were normalized to the DMSO control.
(§3) The remaining steps of the fluorescence assay were the same as above.

AgrC-II = details: for potency estimated from few doses: single replicate dose response, Table 3; for Activity toward Group-II at lower concentration, in words: single concentration 100 nM (or 1 μM); for Mode/strength of activity toward AgrC-II (Group II), in words: dose response
From the text: (§4) However, the biological significance of this agr interference remains unclear, although it has been hypothesized to potentially play a role in competition between different groups in a mixed bacteria milieu (18). […] To this end, the AIP analogs discussed above were screened in GFP reporter strains of Groups-II and -III S. epidermidis to complement the Group-I S. epidermidis data in Tables 1 and 2 (see Methods; FIGS. 7A and 7B).
as §1, §2, §3

AgrC-III = details: for Activity toward Group-III at lower concentration, in words: single concentration 100 nM (or 1 μM)
From the text: as §4, §1, §2, §3

AgrC-I receptor [2] = target: T1, AgrC-I receptor; assay type: cell-based, S. epidermidis; details: single replicate dose response, Table 3
[3] = system: S. epidermidis Group-I RP62A biofilm; details: read-out: IC50 of biofilm growth inhibition, 24 h static, CV staining
Protocol: as §1
Crystal violet biofilm assay protocol. […] Each solution was tested in triplicate.

[4] = read-out: AgrC-II: EC50 (estimated)
[5] = dose response antagonism assay, FIGS. 3A/3B
[6] = read-out: AgrC-I: IC50 (estimated)
[7] = read-out: AgrC-II: IC50 (estimated)
[8] = read-out: AgrC-I: EC50 (estimated)

T1 sequence (Q5HMY3 entry or part of it): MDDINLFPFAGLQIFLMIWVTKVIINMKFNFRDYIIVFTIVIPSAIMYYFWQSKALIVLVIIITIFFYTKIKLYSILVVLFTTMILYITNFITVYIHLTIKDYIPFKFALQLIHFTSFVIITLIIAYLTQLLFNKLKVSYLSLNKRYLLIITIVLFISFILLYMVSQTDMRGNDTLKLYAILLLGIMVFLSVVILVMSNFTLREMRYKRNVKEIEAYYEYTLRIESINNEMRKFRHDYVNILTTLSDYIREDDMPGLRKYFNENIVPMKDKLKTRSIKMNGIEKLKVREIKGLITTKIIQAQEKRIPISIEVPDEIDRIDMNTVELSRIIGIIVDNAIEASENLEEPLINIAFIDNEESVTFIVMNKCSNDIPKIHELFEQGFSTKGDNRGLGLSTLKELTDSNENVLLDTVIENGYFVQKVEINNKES

Molecule	Mode/strength of activity toward AgrC-I (Group I), in words (AgrC-I receptor [1])	EC50 in AgrC-I (AgrC-I receptor [1])	IC50 in AgrC-I (AgrC-I receptor [1])	other results
CC(C)C[C@@H]1NC(=O)[C@H](Cc2ccc(O)cc2)NC(=O)[C@H](CO)NC(=O)[C@H](C)NC(=O)[C@@H](NC(=O)[C@@H]2CCCN2C(=O)[C@H](CC(N)=O)NC(=O)[C@H](Cc2ccc(O)cc2)NC(=O)[C@H](CCCCN)NC(=O)[C@H](C)NC(=O)[C@H](C)NC(=O)[C@@H](N)CC(N)=O)CSC1=O [AIP-III, N-A-A-K-Y-N-P-(C-A-S-Y-L), reference compound] (H-NAAKYNPCASYL; thioester 8-C)	inhibit			
KYNVCANYL [AIP-II 9aa P4V S6A, K-Y-N-V-C-A-N-Y-L]	inactive			potency estimated from few doses (AgrC-II; [4]): > 7000 nM
C[C@H](N)C(=O)N[C@@H](CO)C(=O)N[C@@H](C)C(=O)N[C@H]1CSC(=O)[C@H](Cc2ccccc2)NC(=O)[C@H](Cc2ccc(O)cc2)NC(=O)[C@H](C)NC(=O)[C@H](C)NC1=O [AIP-I D1AS6AV3A, A-S-A-(C-A-A-Y-F)] (H-ASACAAYF; thioester 4-C)				IC50 against AgrC-III, in words (AgrC-III; [5]): subnanomolar to low nanomolar range; Activity toward Group-III at lower concentration, in words (AgrC-III): strongly inhibited; IC50 against AgrC-II, in words (AgrC-II; [5]): subnanomolar to low nanomolar range; Activity toward Group-II at lower concentration, in words (AgrC-II): strongly inhibited
CC(C)C[C@@H]1NC(=O)[C@H](CO)NC(=O)[C@H](CO)NC(=O)[C@@H](NC(=O)[C@H](C)NC(=O)[C@H](CC(N)=O)NC(=O)[C@@H](NC(=O)CN)C(C)C)CSC(=O)[C@H](Cc2ccccc2)NC1=O [S. aureus AIP-II, G-V-N-A-(C-S-S-L-F), reference compound] (H-GVNACSSLF; thioester 5-C)	relatively strong AgrC-I antagonist			
Y-S-T-(C-D-F-I-M) (YSTCDFIM; bridge 4-C) [S. aureus AIP-I, reference compound]		Inactive^c	Inactive^c	
KYNVCSNYL [AIP-II 9aa P4V, K-Y-N-V-C-S-N-Y-L]	antagonist			potency estimated from few doses (AgrC-II; [4]): 114 nM; potency estimated from few doses (AgrC-I receptor [2]; [6]): 45 nM
CC(C)[C@@H](NC(=O)[C@H](CO)NC(=O)[C@@H](N)CC(=O)O)C(=O)N[C@H]1CSC(=O)[C@H](Cc2ccccc2)NC(=O)[C@H](Cc2ccc(O)cc2)NC(=O)[C@H](CO)NC(=O)[C@H](C)NC1=O [AIP-I D-V3, D-S-DV-(C-A-S-Y-F)] (H-DS[dV]CASYF; thioester 4-C)				Activity toward Group-I at lower concentration, in words (AgrC-I receptor [1]; single concentration 100 nM (or 1 μM)): lost its inhibitory activity; Activity toward Group-III at lower concentration, in words (AgrC-III): remained an antagonist; Activity toward Group-II at lower concentration, in words (AgrC-II): remained an antagonist
D-S-V-(C-DA-S-Y-F) (DSVC[dA]SYF; bridge 4-C; also: thiolactone between Cys4 side chain and C-terminus) [AIP-I D-A5]		Inactive^c	Inactive^c	
D-S-V-(C-A-S-A-F) (DSVCASAF; bridge 4-C; also: thiolactone between Cys4 side chain and C-terminus) [AIP-I Y7A]		Inactive^c	Inactive^c	Activity against Group-I, in words (AgrC-I receptor [1]; single concentration 10 μM): inactive
D-S-V-(C-A-S-DY-F) (DSVCAS[dY]F; bridge 4-C; also: thiolactone between Cys4 side chain and C-terminus) [AIP-I D-Y7]	complete loss of activity	Inactive^c	Inactive^c	
CC(C)[C@H](NC(=O)[C@H](CO)NC(=O)[C@H](C)N)C(=O)N[C@H]1CSC(=O)[C@H](Cc2ccccc2)NC(=O)[C@H](Cc2ccc(O)cc2)NC(=O)[C@H](C)NC(=O)[C@H](C)NC1=O [AIP-I D1AS6A, A-S-V-(C-A-A-Y-F)] (H-ASVCAAYF; thioester 4-C)				IC50 [3]: 18 nM
D-S-V-(C-A-S-Y-A) (DSVCASYA; bridge 4-C; also: thiolactone between Cys4 side chain and C-terminus) [AIP-I F8A]		Inactive^c	Inactive^c	
KYNVCSSYL [AIP-II 9aa P4V N7S, K-Y-N-V-C-S-S-Y-L]	switched; also recorded: antagonist			potency estimated from few doses (AgrC-II; [7]): 6.5 nM; potency estimated from few doses (AgrC-I receptor [2]; [8]): > 1800 nM
CC(C)C[C@@H]1NC(=O)[C@H](Cc2ccc(O)cc2)NC(=O)[C@H](CC(N)=O)NC(=O)[C@H](CO)NC(=O)[C@@H](NC(=O)[C@@H]2CCCN2C(=O)[C@H](CC(N)=O)NC(=O)[C@H](Cc2ccc(O)cc2)NC(=O)[C@H](CCCCN)NC(=O)[C@H](CO)NC(=O)[C@H](C)NC(=O)[C@@H](N)CC(N)=O)CSC1=O [AIP-II, N-A-S-K-Y-N-P-(C-S-N-Y-L), reference compound] (H-NASKYNPCSNYL; thioester 8-C)	inhibit			
CC(=O)N[C@H]1CSC(=O)[C@H](Cc2ccccc2)NC(=O)[C@H](Cc2ccc(O)cc2)NC(=O)[C@H](CO)NC(=O)[C@H](C)NC1=O [tAIP-I, Ac-(C-A-S-Y-F)] (Ac-CASYF; thioester 1-C)	weak inhibitory activity			
CC(C)C[C@@H]1NC(=O)[C@H](Cc2ccc(O)cc2)NC(=O)[C@H](CC(N)=O)NC(=O)[C@H](CO)NC(=O)[C@@H](NC(=O)[C@@H]2CCCN2C(=O)[C@@H](N)CC(N)=O)CSC1=O [AIP-II 7aa, N-P-(C-S-N-Y-L)] (H-NPCSNYL; thioester 3-C)	dramatic reduction in inhibitory activity			
KYLPCSNYL [AIP-II 9aa N3L, K-Y-L-P-C-S-N-Y-L]	antagonist			Mode/strength of activity toward AgrC-II (Group II), in words (AgrC-II): antagonist; potency estimated from few doses (AgrC-II; [7]): 70.7 nM; potency estimated from few doses (AgrC-I receptor [2]; [6]): 9.4 nM
KYNVCSAYL [AIP-II 9aa P4V N7A, K-Y-N-V-C-S-A-Y-L]	activating; also recorded: agonist			potency estimated from few doses (AgrC-II; [4]): > 600 nM; potency estimated from few doses (AgrC-I receptor [2]; [8]): > 1200 nM
KYVPCSNYL [AIP-II 9aa N3V, K-Y-V-P-C-S-N-Y-L]	antagonist			Mode/strength of activity toward AgrC-II (Group II), in words (AgrC-II): antagonist; potency estimated from few doses (AgrC-II; [7]): 108 nM; potency estimated from few doses (AgrC-I receptor [2]; [6]): 4.1 nM
I-N-(C-D-F-L-L) [S. aureus AIP-III, reference compound]		Inactive^c	Inactive^c	
CC(C)[C@H](NC(=O)[C@H](CO)NC(=O)[C@@H](N)CC(=O)O)C(=O)N[C@H]1CSC(=O)[C@@H](Cc2ccccc2)NC(=O)[C@H](Cc2ccc(O)cc2)NC(=O)[C@H](CO)NC(=O)[C@H](C)NC1=O [AIP-I D-F8, D-S-V-(C-A-S-Y-DF)] (H-DSVCASY[dF]; thioester 4-C)	maintained agonistic activity			
CC(=O)N[C@H]1CSC(=O)[C@H](CC(C)C)NC(=O)[C@H](Cc2ccc(O)cc2)NC(=O)[C@H](CC(N)=O)NC(=O)[C@H](CO)NC1=O [tAIP-II, Ac-(C-S-N-Y-L)] (Ac-CSNYL; thioester 1-C)	dramatic reduction in inhibitory activity			Activity against Group-III, in words (AgrC-III; single concentration 10 μM): inactive
D-S-V-(DC-A-S-Y-F) (DSV[dC]ASYF; bridge 4-C; also: thiolactone between Cys4 side chain and C-terminus) [AIP-I D-C4]		Inactive^c	Inactive^c	
